Structures can show the parent of a compound that is named as a salt.
Test: in vitro
Conditions: rat, gh3-tre-luc cells

CCCSP(=O)(OCC)Oc1ccc(Br)cc1Cl (centres unmarked) [Profenofos]
CC50 at 24 h (AC50 (uM) modified / 1000, Tox21_110001=Tox21_300752, viability, 1 nM T3 present, 24 h): > 50 µM

CC1CCCO1 (centres unmarked) [2-Methyltetrahydrofuran]
CC50 at 24 h (AC50 (uM) modified / 1000): > 90 µM

CSc1nnc(C(C)(C)C)c(=O)n1N [Metribuzin]
CC50 at 24 h (AC50 (uM) modified / 1000): > 90 µM

CCCn1cnc2c1c(=O)n(CCCCC(C)=O)c(=O)n2C [Propentofylline]
CC50 at 24 h (AC50 (uM) modified / 1000): > 50 µM

O=C1OC2(c3ccccc31)c1cc(Br)c(O)c(Br)c1Oc1c2cc(Br)c(O)c1Br [2',4',5',7'-Tetrabromofluorescein]
CC50 at 24 h (AC50 (uM) modified / 1000): 5.55 µM

CC1=Nc2ccccc2C1(C)C [2,3,3-Trimethylindolenine]
CC50 at 24 h (AC50 (uM) modified / 1000): > 90 µM

c1ccc2c(c1)Sc1ccccc1N2CC1CN2CCC1CC2 (centres unmarked) [Mequitazine]
CC50 at 24 h (AC50 (uM) modified / 1000): 7.76 µM

CC/C=C\CCOC(=O)c1ccccc1 [(3Z)-Hex-3-en-1-yl benzoate]
CC50 at 24 h (AC50 (uM) modified / 1000): > 90 µM

CCCCCCCC#N [Octanenitrile]
CC50 at 24 h (AC50 (uM) modified / 1000): > 90 µM

NC(=O)c1cn(Cc2c(F)cccc2F)nn1 [Rufinamide]
CC50 at 24 h (AC50 (uM) modified / 1000): > 50 µM

BrCCCCBr [1,4-Dibromobutane]
CC50 at 24 h (AC50 (uM) modified / 1000, Tox21_110001=Tox21_301070, viability, 1 nM T3 present, 24 h): > 90 µM

C[N+]1(CCC(C(N)=O)(c2ccccc2)c2ccccc2)CCCCC1 [Fenpiverinium bromide]
CC50 at 24 h (AC50 (uM) modified / 1000): > 50 µM

CNC(=O)Oc1cccc(C(C)C)c1 [m-Cumenyl methylcarbamate]
CC50 at 24 h (AC50 (uM) modified / 1000): > 90 µM

Cc1cc(CC(=O)O)c(C)n1-c1ccc(Cl)cc1 [Clopirac]
CC50 at 24 h (AC50 (uM) modified / 1000): > 50 µM

COC(Cc1ccccc1)OC [(2,2-Dimethoxyethyl)benzene]
CC50 at 24 h (AC50 (uM) modified / 1000): > 90 µM

CC(C)c1cccc(C(C)C)c1O [Propofol]
CC50 at 24 h (AC50 (uM) modified / 1000): > 90 µM

O=C(O)/C=C/c1ccc(Cn2ccnc2)cc1 [Ozagrel hydrochloride]
CC50 at 24 h (AC50 (uM) modified / 1000): > 20 µM

CC(=O)Nc1cccc(C)c1 [N-Acetyl-m-toluidine]
CC50 at 24 h (AC50 (uM) modified / 1000): > 90 µM

N#CCCCl [3-Chloropropionitrile]
CC50 at 24 h (AC50 (uM) modified / 1000): > 90 µM

c1ccc2sc(SN3CCOCC3)nc2c1 [N-Oxydiethylenebenzothiazole-2-sulfenamide]
CC50 at 24 h (AC50 (uM) modified / 1000): > 50 µM

CCCCCCC#CC(=O)OC [Methyl 2-nonynoate]
CC50 at 24 h (AC50 (uM) modified / 1000): > 90 µM

Cc1cc(C)c(N=Nc2c(O)c(S(=O)(=O)O)cc3cc(S(=O)(=O)O)ccc23)cc1C [Ponceau 3R]
CC50 at 24 h (AC50 (uM) modified / 1000): > 6 µM

O=C(Nc1ccc(O)cc1)c1ccccc1O [Osalmid]
CC50 at 24 h (AC50 (uM) modified / 1000): > 50 µM

CCCCCc1ccc(C)cc1O [Amylmetacresol]
CC50 at 24 h (AC50 (uM) modified / 1000): > 50 µM

Cl/C=C\C[N+]12CN3CN(CN(C3)C1)C2 [Chloroallyl methenamine chloride]
CC50 at 24 h (AC50 (uM) modified / 1000): > 90 µM

O=C(NOC[C@H](O)CO)c1ccc(F)c(F)c1Nc1ccc(I)cc1F [PD 0325901]
CC50 at 24 h (AC50 (uM) modified / 1000): > 50 µM

CNc1cnn(-c2cccc(C(F)(F)F)c2)c(=O)c1Cl [Norflurazon]
CC50 at 24 h (AC50 (uM) modified / 1000): > 90 µM

CC(=O)O[C@]1(C(C)=O)CC[C@H]2[C@@H]3C=C(Cl)C4=CC(=O)[C@@H]5C[C@@H]5[C@]4(C)[C@H]3CC[C@@]21C [Cyproterone acetate]
CC50 at 24 h (AC50 (uM) modified / 1000): 66.8 µM

Cc1ccc([N+](=O)[O-])cc1N [2-Methyl-5-nitroaniline]
CC50 at 24 h (AC50 (uM) modified / 1000): > 90 µM

CCCCC(CC)COC(=O)c1ccc(C(=O)OCC(CC)CCCC)c(C(=O)OCC(CC)CCCC)c1 (centres unmarked) [Tris(2-ethylhexyl) trimellitate]
CC50 at 24 h (AC50 (uM) modified / 1000): > 90 µM

CC[N+](CC)(CC)CCC(O)(c1ccccc1)C1CCCCC1 (centres unmarked) [Tridihexethyl chloride]
CC50 at 24 h (AC50 (uM) modified / 1000): > 20 µM

CN(C)CCCN1c2ccccc2C(C)(C)c2ccccc21 [Dimetacrine]
CC50 at 24 h (AC50 (uM) modified / 1000): 14.8 µM

COc1cccc(Br)c1 [1-Bromo-3-methoxybenzene]
CC50 at 24 h (AC50 (uM) modified / 1000): > 90 µM

CCOC(=O)OC(C)OC(=O)[C@@H]1N2C(=O)[C@@H](NC(=O)[C@H](N)c3ccccc3)[C@H]2SC1(C)C (some centres unmarked) [Bacampicillin hydrochloride]
CC50 at 24 h (AC50 (uM) modified / 1000): > 20 µM

O=C1CN=C(c2ccccc2)c2cc(Cl)ccc2N1 [Desmethyldiazepam]
CC50 at 24 h (AC50 (uM) modified / 1000): > 50 µM

CC(=O)N(CC(C)C(=O)O)c1c(I)cc(I)c(N)c1I (centres unmarked) [Iocetamic acid]
CC50 at 24 h (AC50 (uM) modified / 1000): > 20 µM

CNC[C@H](O)c1ccc(O)c(O)c1 [Epinephrine bitartrate]
CC50 at 24 h (AC50 (uM) modified / 1000): > 90 µM

COc1cnc(OC)n2nc(NS(=O)(=O)c3c(OCC(F)F)cccc3C(F)(F)F)nc12 [Penoxsulam]
CC50 at 24 h (AC50 (uM) modified / 1000): > 90 µM

Cc1ccc(S(=O)(=O)NC(=O)NN2CCCCCC2)cc1 [Tolazamide]
CC50 at 24 h (AC50 (uM) modified / 1000): > 90 µM

CCCCCCCCS [1-Octanethiol]
CC50 at 24 h (AC50 (uM) modified / 1000): > 90 µM

Nc1cc(Cl)c(N)c(Cl)c1 [2,6-Dichloro-1,4-benzenediamine]
CC50 at 24 h (AC50 (uM) modified / 1000): > 90 µM

CO/N=C(\C(=O)N[C@@H]1C(=O)N2C(C(=O)O)=C(C[N+]3(C)CCCC3)CS[C@H]12)c1csc(N)n1 [Cefepime chloride hydrochloride hydrate]
CC50 at 24 h (AC50 (uM) modified / 1000): > 50 µM

ClC1=C(Cl)[C@]2(Cl)[C@@H]3[C@@H]4C[C@@H]([C@H]5O[C@@H]45)[C@@H]3[C@@]1(Cl)C2(Cl)Cl [Dieldrin]
CC50 at 24 h (AC50 (uM) modified / 1000, Tox21_110001=Tox21_400029, viability, 1 nM T3 present, 24 h): 75.8 µM

CC[N+]1(C)CCCC1 [1-Ethyl-1-methylpyrrolidinium hexafluorophosphate]
CC50 at 24 h (AC50 (uM) modified / 1000): > 90 µM

CCCC[n+]1ccccc1C [1-Butyl-2-methylpyridinium bromide]
CC50 at 24 h (AC50 (uM) modified / 1000): > 90 µM

CCCCCCCCCCCCCCCCCC[N+](C)(C)C [N,N,N-Trimethyloctadecan-1-aminium chloride]
CC50 at 24 h (AC50 (uM) modified / 1000): 13.4 µM

O=C(c1ccc(O)cc1)c1ccc(O)c(O)c1O [2,3,4,4'-Tetrahydroxybenzophenone]
CC50 at 24 h (AC50 (uM) modified / 1000): > 90 µM

CC[C@H]1CC[C@H](NCc2cc3c(cc2OC)[C@H]2C[C@H]2C(=O)N3C)[C@H](c2ccccc2)N1 [CP-728663]
CC50 at 24 h (AC50 (uM) modified / 1000): 35.3 µM

C[C@H]1C[C@@H](O)CC(C)(C)C1 (stereo in doubt) [(1R,5R)-3,3,5-trimethylcyclohexanol]
CC50 at 24 h (AC50 (uM) modified / 1000): > 90 µM

C=CC(=O)OCCCCCC(C)C [Isooctyl acrylate]
CC50 at 24 h (AC50 (uM) modified / 1000): > 100 µM

CCCCn1cc[n+](C)c1C [1-Butyl-2,3-dimethylimidazolium chloride]
CC50 at 24 h (AC50 (uM) modified / 1000): > 90 µM

COc1ccc([N+](=O)[O-])cc1N [2-Methoxy-5-nitroaniline]
CC50 at 24 h (AC50 (uM) modified / 1000): > 90 µM

CC(C)CC(=O)CC(C)CC(C)C (centres unmarked) [2,6,8-Trimethyl-4-nonanone]
CC50 at 24 h (AC50 (uM) modified / 1000): > 90 µM

O=C1CCCCCCCCCCOCCCCO1 [12-Oxahexadecanolide]
CC50 at 24 h (AC50 (uM) modified / 1000): > 90 µM

O=c1oc(=O)c2cc3c(=O)oc(=O)c3cc12 [1H,3H-Benzo(1,2-c:4,5-c')difuran-1,3,5,7-tetrone]
CC50 at 24 h (AC50 (uM) modified / 1000): > 90 µM

CC(C)N=C=NC(C)C [Diisopropylcarbodiimide]
CC50 at 24 h (AC50 (uM) modified / 1000): > 90 µM

Cc1c(C)c2c(c(C)c1O)CC[C@@](C)(CCC[C@H](C)CCC[C@H](C)CCCC(C)C)O2 [alpha-Vitamin E]
CC50 at 24 h (AC50 (uM) modified / 1000): > 50 µM

OC[C@H]1O[C@@H](OCCc2ccc(O)cc2)[C@H](O)[C@@H](O)[C@@H]1O [Salidroside]
CC50 at 24 h (AC50 (uM) modified / 1000): > 50 µM

Cc1ccc(Cl)c(O)c1 [2-Chloro-5-methylphenol]
CC50 at 24 h (AC50 (uM) modified / 1000): > 50 µM

O=C(O)C1CCC(C(=O)O)CC1 (centres unmarked) [1,4-Cyclohexanedicarboxylic acid]
CC50 at 24 h (AC50 (uM) modified / 1000): > 90 µM

NCCN1CCNCC1 [1-(2-Aminoethyl)piperazine]
CC50 at 24 h (AC50 (uM) modified / 1000): > 90 µM

O=C(O)CCCCCC(=O)O [Heptanedioic acid]
CC50 at 24 h (AC50 (uM) modified / 1000): > 90 µM

CCCCCCCCCCCCCCN(C)C [N,N-Dimethyltetradecylamine]
CC50 at 24 h (AC50 (uM) modified / 1000): > 20 µM

O=C(CCC1CCN(Cc2ccccc2)CC1)c1ccc2c(c1)NCCCC2 [Zanapezil fumerate]
CC50 at 24 h (AC50 (uM) modified / 1000): > 50 µM

CN1CCN(C(=O)O[C@H]2c3nccnc3C(=O)N2c2ccc(Cl)cn2)CC1 [Eszopiclone]
CC50 at 24 h (AC50 (uM) modified / 1000): > 50 µM

COP(=S)(OC)Oc1ccc(SC)c(C)c1 [Fenthion]
CC50 at 24 h (AC50 (uM) modified / 1000): > 90 µM

NC1(c2ccccc2)CCCCC1 [1-Phenylcyclohexylamine hydrochloride]
CC50 at 24 h (AC50 (uM) modified / 1000, Tox21_110001=Tox21_112881, viability, 1 nM T3 present, 24 h): 40.7 µM

Cn1c(NCCN(CCO)CCCc2ccc([N+](=O)[O-])cc2)cc(=O)n(C)c1=O [Nifekalant hydrochloride]
CC50 at 24 h (AC50 (uM) modified / 1000): > 50 µM

C=CC1CC2C=CC1C2 (centres unmarked) [5-Vinyl-2-norbornene]
CC50 at 24 h (AC50 (uM) modified / 1000): > 90 µM

CCOP(=S)(Oc1cnc(C(C)(C)C)nc1)OC(C)C (centres unmarked) [Tebupirimfos]
CC50 at 24 h (AC50 (uM) modified / 1000, Tox21_110001=Tox21_300965, viability, 1 nM T3 present, 24 h): 52.3 µM

NC(=O)CI [Iodoacetamide]
CC50 at 24 h (AC50 (uM) modified / 1000): > 90 µM

CCOC(=O)O[C@H](C)OC(=O)c1ccc2c(c1)cc(C(=O)NC1CCN(C(C)C)CC1)n2Cc1cc(-c2ccc(Cl)s2)on1 [AVE6324]
CC50 at 24 h (AC50 (uM) modified / 1000): 4.58 µM

CC(=O)O[C@H]1CC[C@@]2(C)C(=CC[C@H]3[C@@H]4CC[C@H](C(C)=O)[C@@]4(C)CC[C@@H]32)C1 [3beta-Acetoxy-5-pregnene-20-one]
CC50 at 24 h (AC50 (uM) modified / 1000): > 50 µM

CCCC[n+]1ccccc1 [1-Butylpyridinium hexafluorophosphate]
CC50 at 24 h (AC50 (uM) modified / 1000): > 90 µM

C=CCNCC=C [Diallylamine]
CC50 at 24 h (AC50 (uM) modified / 1000): > 90 µM

CCCCC=O [Pentanal]
CC50 at 24 h (AC50 (uM) modified / 1000): > 90 µM

COc1cc(Cc2cnc(N)nc2N)cc(OC)c1OC [Trimethoprim]
CC50 at 24 h (AC50 (uM) modified / 1000): > 90 µM

Reference: publication PMC6792352, “Limited Chemical Structural Diversity Found to Modulate Thyroid Hormone Receptor in the Tox21 Chemical Library” (Environmental Health Perspectives, 2019)
